In PubChem BioAssay (NCI):
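Where inhibition never reached the appropriate level, the endpoint shown equals the highest concentration tested. Otherwise, values were interpolated linearly from a five-concentration, 48-hour dose response in 96-well plates. Here, GI50 denotes the concentration required for 50% inhibition of growth. TGI marks complete inhibition of growth.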

How the values were obtained:
Assay in all cases: DTP human tumour cell line panel, 48 h
[1] = test system: M14 melanoma
[2] = test system: MDA-MB-435
[3] = test system: IGROV1 ovarian
[4] = test system: HT29 colon
[5] = test system: MOLT-4 leukemia
[6] = test system: HS 578T breast
[7] = test system: TK-10 renal
[8] = test system: NCI-H226 lung
[9] = test system: HCC-2998 colon
[10] = test system: U251 CNS

## COc1ccc(C2=CC(c3ccc4c(c3)OCO4)c3c(c4ccccc4oc3=O)O2)cc1OC (centres undefined)
[1]
  TGI: > 100 µM
[2]
  TGI: 9.25 µM
[3]
  TGI: > 100 µM
[4]
  TGI: > 100 µM
[5]
  TGI: > 100 µM
[6]
  TGI: > 25.6 µM
[7]
  TGI: > 100 µM
[8]
  TGI: 6.72 µM
[9]
  TGI: > 27.2 µM
[10]
  TGI: > 100 µM

## Cc1c(C(N)=O)sc2c1C(=O)N(Cc1ccccc1)C1=NN=C(c3ccc(Cl)cc3)CN12
[1]
  GI50: 2.38 µM
  TGI: 6.75 µM
[2]
  GI50: 4.9 µM
  TGI: 26.1 µM
[3]
  GI50: 3.13 µM
  TGI: 22.3 µM
[4]
  GI50: 4.8 µM
  TGI: 16.1 µM
[5]
  GI50: 2.36 µM
  TGI: 40.1 µM
[6]
  GI50: 5.88 µM
  TGI: 34.2 µM
[7]
  GI50: 6.52 µM
  TGI: 18.9 µM
[8]
  GI50: 2.49 µM
  TGI: 11.8 µM
[9]
  GI50: 3.97 µM
  TGI: 17 µM
[10]
  GI50: 2.39 µM
  TGI: 13.2 µM

## CC(C)(C)OC(=O)N1CCN(CCn2cc(C(F)(F)F)c3c(Cl)ncnc32)CC1
[1]
  GI50: 1.77 µM
  TGI: 3.49 µM
[2]
  GI50: 1.84 µM
  TGI: 3.65 µM
[3]
  GI50: 1.84 µM
  TGI: 3.74 µM
[4]
  GI50: 3.27 µM
  TGI: 11.1 µM
[5]
  GI50: 2.62 µM
  TGI: 6.6 µM
[6]
  GI50: 2.84 µM
  TGI: 8.29 µM
[7]
  GI50: 19.7 µM
  TGI: 42.8 µM
[8]
  GI50: 20 µM
  TGI: 43.3 µM
[9]
  GI50: 2.05 µM
  TGI: 4.53 µM
[10]
  GI50: 2.01 µM
  TGI: 3.57 µM

## COc1c(C)c2c(c(O)c1C/C=C(\C)CCC(=O)O)C(=O)OC2
[1]
  GI50: 0.343 µM
  TGI: > 100 µM
[2]
  GI50: 0.32 µM
  TGI: > 100 µM
[3]
  GI50: 0.253 µM
  TGI: > 100 µM
[4]
  GI50: 0.248 µM
  TGI: > 100 µM
[5]
  GI50: 0.208 µM
  TGI: > 100 µM
[6]
  GI50: 0.853 µM
  TGI: > 100 µM
[7]
  GI50: 1.68 µM
  TGI: > 100 µM
[8]
  GI50: 2.58 µM
  TGI: > 100 µM
[9]
  GI50: 0.404 µM
  TGI: > 100 µM
[10]
  GI50: 0.0905 µM
  TGI: > 100 µM

## c1ccc2[nH]c(-c3ccc(-c4nccc5c4[nH]c4ccccc45)cc3)nc2c1
[1]
  GI50: 1.79 µM
  TGI: 3.57 µM
[2]
  GI50: 1.92 µM
  TGI: 4.27 µM
[3]
  GI50: 4.73 µM
  TGI: 22.4 µM
[4]
  GI50: 2.19 µM
  TGI: 4.43 µM
[5]
  GI50: 2.32 µM
  TGI: 6.11 µM
[6]
  GI50: 2.23 µM
  TGI: 5.93 µM
[7]
  GI50: 2.07 µM
  TGI: 4.59 µM
[8]
  GI50: 2.27 µM
  TGI: 5.56 µM
[9]
  GI50: 3.96 µM
  TGI: 15.9 µM
[10]
  GI50: 2.74 µM
  TGI: 7.83 µM

## FC(F)(F)c1ccc(Nc2nc(-c3c(C(F)(F)F)nc4ccccn34)cs2)cc1
[1]
  GI50: 0.043 µM
  TGI: 1.22 µM
[2]
  GI50: 0.0161 µM
  TGI: 0.0473 µM
[3]
  GI50: 0.422 µM
  TGI: 12.1 µM
[4]
  GI50: 0.0364 µM
  TGI: 1.99 µM
[5]
  GI50: 0.146 µM
  TGI: > 28.7 µM
[6]
  GI50: 0.0356 µM
  TGI: 2.12 µM
[7]
  GI50: 0.917 µM
  TGI: 8.12 µM
[8]
  GI50: 0.358 µM
  TGI: 4.49 µM
[9]
  GI50: 0.18 µM
  TGI: 9.74 µM
[10]
  GI50: 0.0764 µM
  TGI: 11 µM

## COc1cc(C(=O)O[C@H](C(=O)NCCCCCNC(=O)[C@@H](OC(=O)c2cc(OC)cc3c(C)cccc23)[C@]2(C)CO2)[C@]2(C)CO2)c2cccc(C)c2c1
[1]
  TGI: 0.305 µM
[2]
  GI50: 0.016 µM
  TGI: 0.0913 µM
[3]
  GI50: 1.43 µM
  TGI: > 100 µM
[4]
  GI50: 0.182 µM
  TGI: > 100 µM
[5]
  GI50: < 0.01 µM
  TGI: > 100 µM
[6]
  GI50: 0.943 µM
  TGI: 6.51 µM
[7]
  GI50: 0.661 µM
  TGI: 2.37 µM
[8]
  GI50: 0.93 µM
  TGI: 4.09 µM
[9]
  GI50: 0.254 µM
  TGI: 3.55 µM
[10]
  GI50: < 0.01 µM
  TGI: 0.3 µM

## COc1cc(NC(C)CCCNC2CN3CCC2CC3)c2ncccc2c1 (centres undefined)
[1]
  GI50: 3.92 µM
  TGI: 13.5 µM
[2]
  GI50: 8.71 µM
  TGI: 22 µM
[3]
  GI50: 11.5 µM
  TGI: 31.2 µM
[4]
  GI50: 3.7 µM
  TGI: 14 µM
[5]
  GI50: 12.8 µM
  TGI: 31.8 µM
[6]
  GI50: 14.8 µM
  TGI: 39.6 µM
[7]
  GI50: 16.6 µM
  TGI: 31 µM
[8]
  GI50: 13.6 µM
  TGI: 27.7 µM
[9]
  GI50: 11.1 µM
  TGI: 24.8 µM
[10]
  GI50: 10.6 µM
  TGI: 24 µM

## COc1ccc(-c2nc(-c3nc4ccc(OC)cc4[nH]3)c3ccccn23)cc1
[1]
  GI50: 3.74 µM
  TGI: 16 µM
[2]
  GI50: 3.14 µM
  TGI: > 100 µM
[3]
  GI50: 2.7 µM
  TGI: 6.98 µM
[4]
  GI50: 3.75 µM
  TGI: > 100 µM
[5]
  GI50: 3.37 µM
  TGI: 16.9 µM
[6]
  GI50: 2.57 µM
  TGI: 7.15 µM
[7]
  GI50: 2.65 µM
  TGI: 25.6 µM
[8]
  GI50: 6.57 µM
  TGI: > 100 µM
[9]
  GI50: 3.96 µM
  TGI: 46.4 µM
[10]
  GI50: 4.42 µM
  TGI: > 100 µM
